Laboratory results taken from the NIST ThermoML archive (doi:10.1021/je700035m).
± gives the expanded uncertainty stated by the source.

How the values were obtained:
[1] = molar enthalpy of vaporization or sublimation; conditions: 298.15 K, vacuum sublimation/vaporization calorimetry
[2] = Molar enthalpy of transition or fusion; conditions: Crystal; DSC
[3] = Crystal; DTA

molar enthalpy ([1]; Liquid)	Molar enthalpy of transition or fusion [2]	Normal melting temperature [3]	molar enthalpy ([1]; Crystal)	Structure (SMILES)
13.1 ± 0.55 kcal/mol	–	–	–	Cc1ccc2c(c1)OCO2 [5-methyl-1,3-benzodioxole]
–	6.74 ± 0.287 kcal/mol	147.01 ± 0.39 °C	23.3 ± 1.03 kcal/mol	O=[N+]([O-])c1ccc2c(c1)OCO2 [1,2-(methylenedioxy)-4-nitrobenzene]
–	4.97 ± 0.12 kcal/mol	93.11 ± 0.39 °C	21.7 ± 0.43 kcal/mol	N#Cc1ccc2c(c1)OCO2 [3,4-methylenedioxybenzonitrile]

Structure (SMILES)	molar enthalpy ([1]; Liquid)	Molar enthalpy of transition or fusion [2]	Normal melting temperature [3]	molar enthalpy ([1]; Crystal)
CC(=O)c1ccc2c(c1)OCO2 [5-oxoethyl-1,3-benzodioxole]	–	6.27 ± 0.141 kcal/mol	85.72 ± 0.39 °C	25 ± 1.03 kcal/mol
